# Results as given in patent publication US6528275B1, “Substrates and inhibitors of proteolytic enzymes” (Peptide Therapeutics Limited, priority 1996, dated 2003).
# Non-standard residues stand in square brackets, D forms with d. Residues, ends and D or L forms follow the SMILES beside them. Tyr(3-NO2) = N[C@@H](Cc1ccc(O)c([N+](=O)[O-])c1)C(=O)O; 2Nal = N[C@@H](Cc1ccc2ccccc2c1)C(=O)O; Hyp = O=C(O)[C@@H]1C[C@@H](O)CN1; 3Pal = N[C@@H](Cc1cccnc1)C(=O)O; Tic = O=C(O)[C@@H]1Cc2ccccc2CN1; hLeu = CC(C)CC[C@H](N)C(=O)O; dNle = CCCC[C@@H](N)C(=O)O; Ac6c = NC1(C(=O)O)CCCCC1; Nle = CCCC[C@H](N)C(=O)O; Ac5c = NC1(C(=O)O)CCCC1; 2Abz = Nc1ccccc1C(=O)O
# Biological target: T1, Der pI (Dermatophagoides pteronyssinus, UniProt P08176)
# T1 construct: tissue SmithKline-Beecham, U.K (crude mite extract); host or cells: crude house dust mite extract
# T1 sequence (P08176 99-320): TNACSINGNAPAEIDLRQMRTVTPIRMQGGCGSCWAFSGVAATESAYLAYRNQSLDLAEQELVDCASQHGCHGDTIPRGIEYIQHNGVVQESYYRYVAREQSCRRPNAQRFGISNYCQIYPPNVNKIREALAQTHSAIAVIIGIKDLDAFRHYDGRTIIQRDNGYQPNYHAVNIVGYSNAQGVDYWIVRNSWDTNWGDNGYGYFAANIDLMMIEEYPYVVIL
# Test: Der pI substrate assay with FRET peptides (fluorescence, Km, kcat/Km)
# Assay type: biochemical, house dust mite
# Set-up: key: NS indicates that the peptide was not hydrolysed by Der pI.; NM indicated that the peptide was a substrate for Der pI, but the Km was not measured.; NM^a indicates that the peptide was a substrate for Der pI, and its cleavage was followed by HPLC-MS showing hydrolysis to occur between-Nle-Ser-
# Conditions: purified Der pI; peptides SEQ ID Nos. 1-76
# Experimental: Using the general techniques described above, the following compounds were prepared and assayed as potential substrates against Der pI purified as described above.
# Each mixture of 20 compounds in the libraries of the apparatus described herein was screened at a concentration of 1.0 μM per compound in an assay against the cysteinyl protease Der pI.
# Plate assays were carried out in 96 well plate format, using 0.1 ug of Der pI per 100 μL assay volume in each well and using 20 μM of the substrate. All assays were performed in Assay Buffer (AB; 50 mM potassium phosphate, pH 8.25 containing 1 mM ethylenediaminetetraacetic acid (EDTA) and 1 mM dithiothreitol (DTT). The Der pI enzyme is pre-activated by addition of DTT and this in incubated at room temperature for 5 min. prior to initiation of the assay. As an example for the screening methodology, each well contains a 5 μL of a 20 μM solution of the test compound in DMSO, 10 μL of a 200 μM aqueous solution of the substrate, 2, and 85 μL of Der pI in AB is added to initiate the reaction. Enzyme activity is monitored by fluorescence using 320 nm for excitation and 420 nm for the emission wavelengths using a Labsystems Fluroskan Ascent machine. Kinetic measurements were carried out using a Hitachi F-4500 Fluorescence Spectrophotometer.
row,Structure (SMILES),substrate or not substrate for Der pI (symbols in Measured Km)
1,CC(C)CC[C@H](NC(=O)[C@H](C)NC(=O)C1(NC(=O)c2ccccc2N)CCCCC1)C(=O)N[C@@H](CO)C(=O)N[C@@H](Cc1ccc(O)c([N+](=O)[O-])c1)C(=O)N[C@@H](CC(=O)O)C(N)=O [Abz-ACH-Ala-hLeu-Ser-Tyr(NO2)-Asp-NH2] (H-[2Abz][Ac6c]A[hLeu]S[Tyr(3-NO2)]D-NH2),NS
2,CCCC[C@H](NC(=O)[C@H](C)NC(=O)c1ccccc1N)C(=O)N[C@@H](CO)C(=O)N[C@@H](Cc1ccc(O)c([N+](=O)[O-])c1)C(=O)N[C@@H](CC(=O)O)C(N)=O [Abz-Ala-Nle-Ser-Tyr(NO2)-Asp-NH2] (H-[2Abz]A[Nle]S[Tyr(3-NO2)]D-NH2),NM
3,CC(C)CC[C@H](NC(=O)[C@H](C)NC(=O)[C@H](NC(=O)c1ccccc1N)C(C)C)C(=O)N[C@@H](CO)C(=O)N[C@@H](Cc1ccc(O)c([N+](=O)[O-])c1)C(=O)N[C@@H](CC(=O)O)C(N)=O [Abz-DVal-Ala-hLeu-Ser-Tyr(NO2)-Asp-NH2] (H-[2Abz][dV]A[hLeu]S[Tyr(3-NO2)]D-NH2),NS
4,CCCC[C@H](NC(=O)[C@H](C)NC(=O)[C@@H](NC(=O)[C@@H]1C[C@@H](O)CN1C(=O)c1ccccc1N)C(C)C)C(=O)N[C@@H](CO)C(=O)N[C@@H](Cc1ccc(O)c([N+](=O)[O-])c1)C(=O)N[C@@H](CC(=O)O)C(N)=O [Abz-Hyp-Val-Ala-Nle-Ser-Tyr(NO2)-Asp-NH2] (H-[2Abz][Hyp]VA[Nle]S[Tyr(3-NO2)]D-NH2),NS
5,CCCC[C@H](NC(=O)[C@H](C)NC(=O)[C@@H](NC(=O)[C@H](CC(C)C)NC(=O)c1ccccc1N)C(C)C)C(=O)N[C@@H](CO)C(=O)N[C@@H](Cc1ccc(O)c([N+](=O)[O-])c1)C(=O)N[C@@H](CC(=O)O)C(N)=O [Abz-Leu-Val-Ala-Nle-Ser-Tyr(NO2)-Asp-NH2] (H-[2Abz]LVA[Nle]S[Tyr(3-NO2)]D-NH2),NM
6,CCCC[C@H](NC(=O)c1ccccc1N)C(=O)N[C@@H](CO)C(=O)N[C@@H](Cc1ccc(O)c([N+](=O)[O-])c1)C(=O)N[C@@H](CC(=O)O)C(N)=O [Abz-Nle-Ser-Tyr(NO2)-Asp-NH2] (H-[2Abz][Nle]S[Tyr(3-NO2)]D-NH2),NS
7,CCCC[C@H](NC(=O)[C@H](C)NC(=O)[C@@H](NC(=O)[C@H](Cc1ccccc1)NC(=O)c1ccccc1N)C(C)C)C(=O)N[C@@H](CO)C(=O)N[C@@H](Cc1ccc(O)c([N+](=O)[O-])c1)C(=O)N[C@@H](CC(=O)O)C(N)=O [Abz-Phe-Val-Ala-Nle-Ser-Tyr(NO2)-Asp-NH2] (H-[2Abz]FVA[Nle]S[Tyr(3-NO2)]D-NH2),NM
8,CC(C)CC[C@H](NC(=O)[C@H](C)NC(=O)[C@@H]1Cc2ccccc2CN1C(=O)c1ccccc1N)C(=O)N[C@@H](CO)C(=O)N[C@@H](Cc1ccc(O)c([N+](=O)[O-])c1)C(=O)N[C@@H](CC(=O)O)C(N)=O [Abz-Tic-Ala-hLeu-Ser-Tyr(NO2)-Asp-NH2] (H-[2Abz][Tic]A[hLeu]S[Tyr(3-NO2)]D-NH2),NS
9,CCCC[C@H](NC(=O)[C@H](C)NC(=O)[C@@H](NC(=O)[C@H](Cc1ccc(O)cc1)NC(=O)c1ccccc1N)C(C)C)C(=O)N[C@@H](CO)C(=O)N[C@@H](Cc1ccc(O)c([N+](=O)[O-])c1)C(=O)N[C@@H](CC(=O)O)C(N)=O [Abz-Tyr-Val-Ala-Nle-Ser-Tyr(NO2)-Asp-NH2] (H-[2Abz]YVA[Nle]S[Tyr(3-NO2)]D-NH2),NM
10,CC(C)CC[C@H](NC(=O)[C@@H](CCC(N)=O)NC(=O)[C@@H](NC(=O)c1ccccc1N)C(C)C)C(=O)N[C@@H](CO)C(=O)N[C@@H](Cc1ccc(O)c([N+](=O)[O-])c1)C(=O)N[C@@H](CC(=O)O)C(N)=O [Abz-Va1-DGln-hLeu-Ser-Tyr(NO2)-Asp-NH2] (H-[2Abz]V[dQ][hLeu]S[Tyr(3-NO2)]D-NH2),NS
11,CC(C)CC[C@H](NC(=O)[C@H](Cc1ccc2ccccc2c1)NC(=O)[C@@H](NC(=O)c1ccccc1N)C(C)C)C(=O)N[C@@H](CO)C(=O)N[C@@H](Cc1ccc(O)c([N+](=O)[O-])c1)C(=O)N[C@@H](CC(=O)O)C(N)=O [Abz-Val-2Nal-hLeu-Ser-Tyr(NO2)-Asp-NH2] (H-[2Abz]V[2Nal][hLeu]S[Tyr(3-NO2)]D-NH2),NS
12,CC(C)CC[C@H](NC(=O)[C@H](Cc1cccnc1)NC(=O)[C@@H](NC(=O)c1ccccc1N)C(C)C)C(=O)N[C@@H](CO)C(=O)N[C@@H](Cc1ccc(O)c([N+](=O)[O-])c1)C(=O)N[C@@H](CC(=O)O)C(N)=O [Abz-Val-3pyr-hLeu-Ser-Tyr(NO2)-Asp-NH2] (H-[2Abz]V[3Pal][hLeu]S[Tyr(3-NO2)]D-NH2),NS
13,CC(C)CC[C@H](NC(=O)C1(NC(=O)[C@@H](NC(=O)c2ccccc2N)C(C)C)CCCCC1)C(=O)N[C@@H](CO)C(=O)N[C@@H](Cc1ccc(O)c([N+](=O)[O-])c1)C(=O)N[C@@H](CC(=O)O)C(N)=O [Abz-Val-ACH-hLeu-Ser-Tyr(NO2)-Asp-NH2] (H-[2Abz]V[Ac6c][hLeu]S[Tyr(3-NO2)]D-NH2),NS
14,CC(C)CC[C@H](NC(=O)C1(NC(=O)[C@@H](NC(=O)c2ccccc2N)C(C)C)CCCC1)C(=O)N[C@@H](CO)C(=O)N[C@@H](Cc1ccc(O)c([N+](=O)[O-])c1)C(=O)N[C@@H](CC(=O)O)C(N)=O [Abz-Val-ACP-hLeu-Ser-Tyr(NO2)-Asp-NH2] (H-[2Abz]V[Ac5c][hLeu]S[Tyr(3-NO2)]D-NH2),NS
15,CC(C)[C@H](NC(=O)c1ccccc1N)C(=O)N[C@@H](C)C(=O)NC1(C(=O)N[C@@H](CO)C(=O)N[C@@H](Cc2ccc(O)c([N+](=O)[O-])c2)C(=O)N[C@@H](CC(=O)O)C(N)=O)CCCCC1 [Abz-Val-Ala-ACH-Ser-Tyr(NO2)-Asp-NH2] (H-[2Abz]VA[Ac6c]S[Tyr(3-NO2)]D-NH2),NS
16,CC(C)[C@H](NC(=O)c1ccccc1N)C(=O)N[C@@H](C)C(=O)NC1(C(=O)N[C@@H](CO)C(=O)N[C@@H](Cc2ccc(O)c([N+](=O)[O-])c2)C(=O)N[C@@H](CC(=O)O)C(N)=O)CCCC1 [Abz-Val-Ala-ACP-Ser-Tyr(NO2)-Asp-NH2] (H-[2Abz]VA[Ac5c]S[Tyr(3-NO2)]D-NH2),NS
17,CCCC[C@@H](NC(=O)[C@H](C)NC(=O)[C@@H](NC(=O)c1ccccc1N)C(C)C)C(=O)N[C@@H](CO)C(=O)N[C@@H](Cc1ccc(O)c([N+](=O)[O-])c1)C(=O)N[C@@H](CC(=O)O)C(N)=O [Abz-Val-Ala-DNle-Ser-Tyr(NO2)-Asp-NH2] (H-[2Abz]VA[dNle]S[Tyr(3-NO2)]D-NH2),NS
18,CC(C)[C@H](NC(=O)c1ccccc1N)C(=O)N[C@@H](C)C(=O)N1C[C@H](O)C[C@H]1C(=O)N[C@@H](CO)C(=O)N[C@@H](Cc1ccc(O)c([N+](=O)[O-])c1)C(=O)N[C@@H](CC(=O)O)C(N)=O [Abz-Val-Ala-Hyp-Ser-Tyr(NO2)-Asp-NH2] (H-[2Abz]VA[Hyp]S[Tyr(3-NO2)]D-NH2),NS
19,CCCC[C@H](NC(=O)[C@H](C)NC(=O)[C@@H](NC(=O)c1ccccc1N)C(C)C)C(=O)N[C@@H](CO)C(=O)N[C@@H](C)C(=O)N[C@@H](CC(=O)O)C(N)=O [Abz-Val-Ala-Nle-Ser-Ala-Asp-NH2] (H-[2Abz]VA[Nle]SAD-NH2),NM
20,CCCC[C@H](NC(=O)[C@H](C)NC(=O)[C@@H](NC(=O)c1ccccc1N)C(C)C)C(=O)N[C@@H](CO)C(=O)N[C@@H](CCCCN)C(=O)N[C@@H](CC(=O)O)C(N)=O [Abz-Val-Ala-Nle-Ser-Lys-Asp-NH2] (H-[2Abz]VA[Nle]SKD-NH2),NM
21,CCCC[C@H](NC(=O)[C@H](C)NC(=O)[C@@H](NC(=O)c1ccccc1N)C(C)C)C(=O)N[C@@H](CO)C(N)=O [Abz-Val-Ala-Nle-Ser-NH2] (H-[2Abz]VA[Nle]S-NH2),NM
22,CCCC[C@H](NC(=O)[C@H](C)NC(=O)[C@@H](NC(=O)c1ccccc1N)C(C)C)C(=O)N[C@@H](CO)C(=O)N[C@@H](Cc1ccccc1)C(=O)N[C@@H](CC(=O)O)C(N)=O [Abz-Val-Ala-Nle-Ser-Phe-Asp-NH2] (H-[2Abz]VA[Nle]SFD-NH2),NM
23,CCCC[C@H](NC(=O)[C@H](C)NC(=O)[C@@H](NC(=O)c1ccccc1N)C(C)C)C(=O)N[C@@H](CO)C(=O)N[C@@H](Cc1ccc(O)c([N+](=O)[O-])c1)C(N)=O [Abz-Val-Ala-Nle-Ser-Tyr(NO2)-NH2] (H-[2Abz]VA[Nle]S[Tyr(3-NO2)]-NH2),NM
